Experimental data from patent publication US4687481A, “Transdermal drug delivery system” (priority 1986, dated 1987).
Where “and” joins values, the source holds several entries; their conditions need not be identical. Equal entries are not always repeated. Entries after “also recorded” stand apart in the source; their conditions may differ. Where two headings read alike, the source gives them in different places.

Columns and labels:
[1] = cited from earlier work; for FLUX (Feldman 1969) / FLUX (SCHAEFER 1979): human skin; for flux rates in comparison to the corticosterones: Table I
[2] = cited from earlier work
[3] = In vitro mouse skin permeation from patch, Franz diffusion cell; conditions: for Rate of permeation: 2.4 sq. cm., estradiol value is a minimum not corrected for saturation effects, maximum flux expected nearly 2-3 times greater
Protocol: A typical sustained release for the release of levonorgestrel is: a 9.4 square centimeter of Johnson and Johnson Rayon™ First Aid Tape-Hypo-Allergenic--1 inch wide, 1.5 inch long for the impervious backing and to form the adhesive layer and a 2 square centimeter ID--2.25 square centimeter OD--2/3 mm thick teflon ring. […] Microspheres are prepared from the levonorgestrel and the poly-L(-)lactide as follows: Prepare a 2.5 percent wt/v solution of polyvinyl alcohol (PVA) #523 in one liter of distilled water; prepare a 15 percent wt/v solution of poly-L-(-)lactide, approx. 1 R.S.V. in 300 ml of reagent grade methylene chloride; mix 5 ml of the poly-L-(-)lactide solution, 10 ml methylene chloride and 5 grams of levonorgestrel to form a uniform slurry; take the 1 l of PVA solution and pour it into a 2 l stainless steel beaker. Stir at approx. 1000 RPM (1550×0.7) and heat at low temperature, (approx. 35° C.); add levonorgestrel slurry. Heat approx. 4 hours, then turn off heat and stirrer; wet sieve off the 45-106 um size fraction; and dry in vacuum oven at room temperature and recover the solid microspheres. Then 45 mg of these solid microspheres are mixed with 85 mg of Vaseline or a viscous vehicle (trademark of Chesebrough-Pond's, Inc.). The Teflon ring is placed in the center on the adhesive side of the tape and the Vaseline mixture is then spread to uniform thickness iside the Teflon ring. The porous membrane is then placed over the mixture of Vaseline to form a complete patch. An estradiol patch is similarly prepared using 70 mg of Vaseline with 38 mg of microspheres containing estradiol.
In Vitro mouse skin permeation studies were conducted with a 2.4 square centimeter patch which was placed in a 20 mm diameter water jacketted Franz diffusion cell mounted on a 9-cell Drive Unit/Mounting Assembly. The water jacket temperature of the cells was controlled by a bath and water circulator which is maintained at 37° C. This system is widely used in the pharmaceutical industry for measuring the permeability of percutaneous patches across animal and cadaver skins.
Release of each drug was determined as a function of time by analysis of aliquots of the contents of the reservoir in a Waters High Pressure Liquid Chromatograph (HPLC) using a u Bondpak C-18 radial pack column with a mobile phase of 60% ethanol in water. The steroids were measured in a uv detector at a wavelength of 280 nm for estradiol and 254 for levonorgestrel.
Pieces of full thickness abdominal skin were freshly excised from a 6 week old male nude mice and mounted individually on the Franz diffusion cell. Before use, the skins were washed three times in 200 ml normal saline to remove extraneous and other soluble material. The face membrane of the system was applied to the stratum corneum side of the skin. The skin permeation profile of each drug was followed by removing the liquid from the receptor compartment for assay at the appropriate intervals. The compartment was then filled with fresh saline and the permeation continued. Release of the drug was monitored in a liquid chromatograph (HPLC).

[4] = Protocol: To obtain maximum flux rates aliquots of the reservoir were analyzed during a period of 8 hours on day 2, day 3, and day 7.
[5] = cited from earlier work; for oral effectiveness: "first pass" inactivation
[6] = cited from earlier work; remark: listed apart in the source
[7] = implantable drug delivery systems; cited from earlier work

With `C[C@]12CCC(=O)C=C1CC[C@@H]1[C@@H]2[C@@H](O)C[C@@]2(C)[C@H]1CC[C@]2(O)C(=O)CO` [Hydrocortisone] as the compound, how does the “FLUX (Feldman 1969)” value [1] read?
Its value is 2.5 × 10^-11 MOLES/CM^2 HR.

What about the “increase in the penetration of hydrocortisone” value ([2]; modified skin, when the skin is occluded) of the same compound?
The value was “tenfold increase”.

And the “penetration of hydrocortisone when the skin is occluded” value ([2]; through modified skin, occluded)?
Its value is 10%.

And the “penetration of hydrocortisone before increase” value ([2]; through modified skin, starting value, not occluded)?
The value was 1%.

Which “flux rates in comparison to the corticosterones” value [1] does the source give for `C[C@]12CC[C@@H]3c4ccc(O)cc4CC[C@H]3[C@@H]1CC[C@@H]2O` [Estradiol, 17β estradiol] here?
The value was “fairly high”.

What about the “FLUX (Feldman 1969)” value [1] of the same compound?
The value was 8.2 × 10^-11 MOLES/CM^2 HR.

And the “FLUX (SCHAEFER 1979)” value [1]?
Its value is 5.8 × 10^-10 MOLES/CM^2 HR and 4.6 × 10^-10 MOLES/CM^2 HR.

What about the permeation rate ([3]; 2.4 square centimeter estradiol patch, per day, mass unit not given) of the same compound?
The permeation rate was 5.

What about the “delivery across freshly excised mouse skin” value ([3]; 2.4 square centimeter patch (DermaPatch)) of the same compound?
Its value is 5 micrograms/day.

What about the Minimum dose absorbed ([3]; Table 3, 2.4 sq. cm. patch) of the same compound?
Its Minimum dose absorbed is greater than 5.2 mcg./24 hr.

And the Rate of permeation ([3]; Table 3)?
Its Rate of permeation is greater than 0.09 mcg./sq. cm./hr.

What about the mouse skin permeation ([3]; day 1) of the same compound?
The mouse skin permeation was 6 Micrograms/2.4 sq. cm.

What about the mouse skin permeation ([3]; day 2) of the same compound?
Its mouse skin permeation is 10 Micrograms/2.4 sq. cm.

And the mouse skin permeation ([3]; day 3)?
The mouse skin permeation was 16 Micrograms/2.4 sq. cm.

What about the “Estimated size needed to deliver required dose” value [4] of the same compound?
The value was 5.

What about the oral effectiveness [5] of the same compound?
The oral effectiveness was “limited oral effectiveness”.

For `CN1CCCC1c1cccnc1` (stereo not shown) [nicotine], which “period maintained in the reservoir” value ([6]; compound which very rapidly penetrates and diffuses) is on record?
Its value is 3 to 4 days.

With `C#C[C@]1(O)CC[C@H]2[C@@H]3CCc4cc(O)ccc4[C@H]3CC[C@@]21C` [ethinylestradiol] as the compound, how does the oral effectiveness [5] read?
The oral effectiveness was “active orally”.

And the “inactivation by the liver and other tissues” value ([5]; oral)?
Its value is “very low”.

Which “FLUX (Feldman 1969)” value [1] does the source give for `C[C@]12C[C@H](O)[C@H]3[C@@H](CCC4=CC(=O)CC[C@@]43C)[C@@H]1CC[C@@H]2C(=O)CO` [Corticosterone] here?
Its value is 7.5 × 10^-12 MOLES/CM^2 HR.

For `CC(=O)[C@H]1CC[C@H]2[C@@H]3CCC4=CC(=O)CC[C@]4(C)[C@H]3CC[C@]12C` [Progesteone, progesterone], which “flux rates in comparison to the corticosterones” value [1] is on record?
The value was “fairly high”.

What about the “FLUX (Feldman 1969)” value [1] of the same compound?
The value was 3.4 × 10^-11 MOLES/CM^2 HR.

What about the “accumulation in subcutaneous tissue and underlying muscle” value ([6]; in vivo) of the same compound?
Its value is “more pronounced with percutaneous than with subcutaneous administration”.

With estrogen as the compound, how does the “accumulation in subcutaneous tissue and underlying muscle” value ([6]; percutaneous versus subcutaneous administration) read?
Its value is “more pronounced with percutaneous than with subcutaneous administration”.

What does the source list for `C#C[C@]1(O)CC[C@H]2[C@@H]3CCC4=CC(=O)CC[C@@H]4[C@H]3CC[C@@]21CC` [Levonorgestrel, levonorgestrel]?
dose sufficient to prevent fertility [7]: 30 micrograms per day; Minimum dose absorbed [3]: 43-160 mcg./24 hr.; delivery across freshly excised mouse skin [3]: 43 micrograms/day; Rate of permeation ([3]; Table 3): 0.75-2.8 mcg./sq. cm./hr.; skin permeation / release profile ([3]; abdominal skin of nude mouse): zero order release; also recorded: zero order rate; average rate of release (maximum flux rates) ([3]; aliquots during 8 hours on day 2, day 3 and day 7, 2.4 square centimeter patch): 6.7 micrograms per hour; mouse skin permeation ([3]; day 1): about 25 Micrograms/2.4 sq. cm.; mouse skin permeation ([3]; day 2): 90 Micrograms/2.4 sq. cm.; mouse skin permeation ([3]; day 3): 140 Micrograms/2.4 sq. cm.; mouse skin permeation ([3]; day 7): 270 Micrograms/2.4 sq. cm.; mouse skin permeation ([3]; day 8): 375 Micrograms/2.4 sq. cm.; mouse skin permeation ([3]; day 9): 405 Micrograms/2.4 sq. cm.; mouse skin permeation ([3]; day 10): 570 Micrograms/2.4 sq. cm.; mouse skin permeation ([3]; day 11): 505 Micrograms/2.4 sq. cm.; mouse skin permeation ([3]; day 14): 590 Micrograms/2.4 sq. cm.; rate of skin permeation ([3]; during 24 hours, membrane area 2.4 square centimeters): approximately 43 ug/day; average rate of release (maximum flux rates) ([3]; from 6.7 micrograms per hour, days 2, 3 and 7): 160 micrograms per day/2.4 square/centimeters; Estimated size needed to deliver required dose ([4]; dose required 20 (levonorgestrel) or 25 (estradiol) mcg./day): 0.5 sq. cm.; estimated delivery from a patch ([4]; patch surface area 0.5 square centimeters): 20 micrograms per day; estimated delivery from a patch ([4]; patch surface area 5 square centimeters): 2.5 milligrams per day

With `CN(Cc1cnc2nc(N)nc(N)c2n1)c1ccc(C(=O)N[C@@H](CCC(=O)O)C(=O)O)cc1` [methotrexate] as the compound, how does the “reduction of the duration of the reservoir” value ([6]; irritation increases epidermal turnover) read?
Its value is roughly 50%.

With `C[C@]12CC[C@@H]3c4ccc(O)cc4CC[C@H]3[C@@H]1C[C@@H](O)[C@@H]2O` [Estriol] as the compound, how does the “FLUX (SCHAEFER 1979)” value [1] read?
The value was 7.8 × 10^-11 MOLES/CM^2 HR.
